Measurements from patent US9775351B2, “Ternary fungicidal and pesticidal mixtures” (BAYER CROPSCIENCE AG, priority 2012, dated 2017).

System: Rhizoctonia solani
Assay: Rhizoctonia test (cotton)/seed treatment
Format: in vivo
Conditions: greenhouse, 7 days at 20° C
Method: Rhizoctonia Test (Cotton)/Seed Treatment
The test is performed under greenhouse conditions.
Commercially available disease control agents, active compounds solved in N-methyl-2-pyrrolidon, or combinations thereof were diluted with water to the desired dosages. Cotton seeds were treated with this preparations and sown in 6*6 cm pots containing 4 cm of a 1:1 mix of steamed field soil and sand, mixed with a perlite-culture of Rhizoctonia solani.
Pots were incubated in the greenhouse for 7 days at 20° C.
Assessment consisted of counting of emerged seedlings and diseased plants. 0% means an efficacy which corresponds to that of the untreated control, while an efficacy of 100% means that all seedlings have emerged and are healthy.

Work on `CC1CC(C)(C)c2cccc(NC(=O)c3cn(C)nc3C(F)F)c21` (stereo not drawn) [(I-1), 3-(difluoromethyl)-1-methyl-N-(1,1,3-trimethyl-2,3-dihydro-1H-inden-4-yl)-1H-pyrazole-4-carboxamide] yielded an Efficacy in % (application rate 10 g a.i./dt) of 41%.

`CN/C(=N\[N+](=O)[O-])NCc1cnc(Cl)s1` [clothianidin] was tested, and the Efficacy in % (application rate 12 g a.i./dt) was 24%.

`COCC(=O)N(c1c(C)cccc1C)C(C)C(=O)OC` (stereo not drawn) [metalaxyl] gave an Efficacy in % (application rate 1 g a.i./dt) of 12%.
